Results on 24 molecules are retold here after patent US9365540B2, “Benzimidazole derivatives as MCH receptor antagonists” (Takeda Pharmaceutical Company Limited, priority 2012, dated 2016).

Where a name gives a salt, the structure may show the parent alone.

In assay [1] the target is T1, human MCH receptor 1 (MCHR1) (Homo sapiens, UniProt Q99705).
T1 construct: expressed in transfected cells; host or cells: CHO cell clone 57 (membrane fraction)
The experiment in a line: human MCH receptor 1 (MCHR1) competitive binding assay with [125I]-MCH(4-19). To be noted: test compound 0.1 μM, human MCHR1-expressing CHO cell membrane fraction, read-out: Binding inhibition rate % (0.1 μM). An outline of the steps:
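Percent binding inhibition by 0.1 μM test compound, corrected for nonspecific binding defined with unlabeled MCH(1-19), is read by scintillation after filtration onto PEI-treated GF/C filters. The reaction runs 1 hr at room temperature with [125I]-MCH(4-19) and human MCHR1-CHO cell membranes in Tris-HCl pH 7.5 buffer containing EDTA and protease inhibitors.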

The target of a further assay is T2, human MCHR1 (Homo sapiens, UniProt Q99705).
T2 construct: expressed in transfected cells; host or cells: CHO dhfr- cells, clone #4
T2 sequence (Q99705 whole entry): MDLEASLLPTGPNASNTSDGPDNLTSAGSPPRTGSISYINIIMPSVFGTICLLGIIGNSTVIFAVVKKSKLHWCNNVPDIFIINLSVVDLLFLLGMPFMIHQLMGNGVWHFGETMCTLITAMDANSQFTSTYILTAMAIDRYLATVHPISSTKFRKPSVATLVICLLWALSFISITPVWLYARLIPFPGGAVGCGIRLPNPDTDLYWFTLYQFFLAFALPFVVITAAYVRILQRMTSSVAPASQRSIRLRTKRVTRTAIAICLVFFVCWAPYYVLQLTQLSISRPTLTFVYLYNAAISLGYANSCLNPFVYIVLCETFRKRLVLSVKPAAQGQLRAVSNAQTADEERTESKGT
Description: MCH receptor 1 antagonistic activity, Ca2+ mobilization assay. It is filed as cell-based. To be noted: CHO, test compound 0.1 μM; human MCHR1-expressing CHO cells (clone #4); ligand MCH(4-19) 2 nM; read-out: Inhibitory rate % (0.1 μM). In outline: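 CHO dhfr− cells stably expressing human MCHR1 (clone #4) were used in a fluorometric Ca2+ mobilization assay. Test compounds were run at 0.1 μM, with antagonism expressed as percent inhibition.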
A general note: A change in cytosolic calcium serves as a functional read-out for many receptors and channels.

Assay [2] concerns male diet-induced obese F344/Jcl rats. Description: Anorectic effect in male diet-induced obese F344/Jcl rats. It is filed as in vivo, rat. To be noted: 5 mg/mL suspension at 2 mL/kg, two administrations, food intake for 2 days vs control group; for inhibition in vivo at 5000 µg/mL, 10 mg/kg: Rattus norvegicus, po, 48 h, read-out: Food intake suppression rate (%). The method, then:
Evaluation of Anorectic Effect Using Male Diet-Induced Obese F344/Jcl Rats
Male diet-induced obese F344/Jcl rats (44-50 weeks old) fed with a high-fat diet (D12451: Research Diets) from 5 weeks old were used. From before the start of experiment, the rats were singly housed, given a powder high-fat diet (D12451M: Research Diets), and habituated to oral administration with tap water. The food intake from the evening of the day before the start of experiment to the next morning was measured, and the rats were grouped based on both the food intake and the body weight of the previous day. In the evening of the day of the start of experiment and the next day, 0.5% methylcellulose solution was orally administered to the control group, and 0.5% methylcellulose suspension (5 mg/mL) of the test compound was orally administered to the compound administration group at 2 mL/kg (6 per group for both control group and compound administration group). The food intake for 2 days from the initial administration was measured. The food intake inhibition rate of each compound administration group to the control group was calculated.

T1 sequence (Q99705 whole entry): as above

Take `Cn1c(C2CC2)nc2ccc(-n3ccc(OCc4ccccc4)cc3=O)cc21` [Example 9, 4-(Benzyloxy)-1-(2-cyclopropyl-1-methyl-1H-benzimidazol-6-yl)pyridin-2(1H)-one]: the inhibition at 0.1 µM amounted to 72% in assay [1] and 100% on human MCHR1. The inhibition in vivo at 5000 µg/mL, 10 mg/kg in assay [2] turned out to be 14.8%.

As for `Cn1c(C2CC2)nc2ccc(-n3ccc(OCc4ccc(Cl)cc4)cc3=O)cc21` [Example 10, 4-((4-Chlorobenzyl)oxy)-1-(2-cyclopropyl-1-methyl-1H-benzimidazol-6-yl)pyridin-2(1H)-one], the inhibition at 0.1 µM in assay [1] stood at 89%; on human MCHR1, 99%. In addition, the inhibition in vivo at 5000 µg/mL, 10 mg/kg in assay [2] was 58.1%.

`Cn1c(CC2CC2)nc2ccc(-n3ccc(OCc4ccc(F)cc4)cc3=O)cc21` [Example 15, 1-(2-(Cyclopropylmethyl)-1-methyl-1H-benzimidazol-6-yl)-4-((4-fluorobenzyl)oxy)pyridin-2(1H)-one]: the results for the inhibition at 0.1 µM (in assay [1]; at human MCHR1) were 53% and 90%, respectively. The inhibition in vivo at 5000 µg/mL, 10 mg/kg in assay [2] turned out to be 45.4%.

On to `CCc1nc2ccc(-n3ccc(OCc4ccc(Cl)s4)cc3=O)cc2n1C` [Example 49, 4-[(5-Chlorothiophen-2-yl)methoxy]-1-(2-ethyl-1-methyl-1H-benzimidazol-6-yl)pyridin-2(1H)-one], for which, in assay [2], the inhibition in vivo at 5000 µg/mL, 10 mg/kg came to 29.3%.

As for `CCc1nc2ccc(-n3ccc(OCc4csc(Cl)c4)cc3=O)cc2n1C` [Example 51, 4-[(5-Chlorothiophen-3-yl)methoxy]-1-(2-ethyl-1-methyl-1H-benzimidazol-6-yl)pyridin-2(1H)-one], the inhibition in vivo at 5000 µg/mL, 10 mg/kg in assay [2] amounted to 50%.

With `Cn1c(C2CC2)nc2ccc(-n3ccc(OCc4ccc(Cl)c(F)c4)cc3=O)cc21` [Example 131, 4-((4-Chloro-3-fluorobenzyl)oxy)-1-(2-cyclopropyl-1-methyl-1H-benzimidazol-6-yl)pyridin-2(1H)-one], the inhibition at 0.1 µM in assay [1] turned out to be 78%. In addition, the inhibition in vivo at 5000 µg/mL, 10 mg/kg in assay [2] came to 44.3%.

Turning to `Cc1c(C2CC2)nc2ccc(-n3ccc(OCc4ccc(C(F)(F)F)s4)cc3=O)cn12` [Example 158, 1-(2-Cyclopropyl-3-methylimidazo[1,2-a]pyridin-6-yl)-4-((5-(trifluoromethyl)thiophen-2-yl)methoxy)pyridin-2(1H)-one], the inhibition at 0.1 µM in assay [1] was determined as 83%; on human MCHR1, 105%. In assay [2], the inhibition in vivo at 5000 µg/mL, 10 mg/kg worked out at 20.3%.

As to `Cc1c(C2CC2)nc2ccc(-n3ccc(OCc4ccc(C(F)(F)F)s4)cc3=O)cn12` [Example 160, 1-(2-Cyclopropyl-3-methylimidazo[1,2-a]pyridin-6-yl)-4-((5-(trifluoromethyl)thiophen-2-yl)methoxy)pyridin-2(1H)-one hydrochloride], the “Food intake suppression rate (%)” value in assay [2] (oral, hydrochloride) is listed as 22.7%.

For the molecule `Cn1c(C2CC2)nc2ccc(-n3ccc(OCc4ccc(C(F)(F)F)s4)cc3=O)cc21` [Example 242, 1-(2-Cyclopropyl-1-methyl-1H-benzimidazol-6-yl)-4-((5-(trifluoromethyl)-2-thienyl)methoxy)pyridin-2(1H)-one hydrochloride], the inhibition in vivo at 5000 µg/mL, 10 mg/kg in assay [2] stood at 17.4%.

Turning to `Cn1c(C2CC2)nc2ccc(-n3ccc(OCc4csc(C(F)(F)F)c4)cc3=O)cc21` [Example 252, 1-(2-Cyclopropyl-1-methyl-1H-benzimidazol-6-yl)-4-((5-(trifluoromethyl)-3-thienyl)methoxy)pyridin-2(1H)-one], the inhibition at 0.1 µM turned out to be 66% in assay [1] and 85% on human MCHR1. For the same molecule, in assay [2], the inhibition in vivo at 5000 µg/mL, 10 mg/kg is 30.8%.

For the molecule `Cn1c(C2CC2)nc2ccc(-n3ccc(OCc4csc(C(F)(F)F)n4)cc3=O)cc21` [Example 266, 1-(2-Cyclopropyl-1-methyl-1H-benzimidazol-6-yl)-4-((2-(trifluoromethyl)-1,3-thiazol-4-yl)methoxy)pyridin-2(1H)-one], the inhibition at 0.1 µM in assay [1] stood at 50%; at human MCHR1, 73%. For the same molecule, in assay [2], the inhibition in vivo at 5000 µg/mL, 10 mg/kg was 20%.

On to `Cc1csc(COc2ccn(-c3ccc4nc(C5CC5)n(C)c4c3)c(=O)c2)n1` [Example 268, 1-(2-Cyclopropyl-1-methyl-1H-benzimidazol-6-yl)-4-((4-methyl-1,3-thiazol-2-yl)methoxy)pyridin-2(1H)-one], for which the inhibition at 0.1 µM was 66% in assay [1] and 86% on human MCHR1.

Turning to `Cn1c(C2CC2)nc2ccc(-n3ccc(OCc4nc(CF)cs4)cc3=O)cc21` [Example 270, 1-(2-Cyclopropyl-1-methyl-1H-benzimidazol-6-yl)-4-((4-(fluoromethyl)-1,3-thiazol-2-yl)methoxy)pyridin-2(1H)-one], the inhibition at 0.1 µM in assay [1] worked out at 58%; at human MCHR1, 73%.

Turning to `Cn1c(C2CC2)nc2ccc(-n3ccc(OCc4cc(C(F)(F)F)cs4)cc3=O)cc21` [Example 275, 1-(2-Cyclopropyl-1-methyl-1H-benzimidazol-6-yl)-4-((4-(trifluoromethyl)-2-thienyl)methoxy)pyridin-2(1H)-one], the inhibition at 0.1 µM in assay [1] amounted to 75%; on human MCHR1, 89%. Also, the inhibition in vivo at 5000 µg/mL, 10 mg/kg in assay [2] stood at 50.1%.

Turning to `CCc1nc2ccc(-n3ccc(OCc4cc(C(F)(F)F)cs4)cc3=O)cc2n1C` [Example 276, 1-(2-Ethyl-1-methyl-1H-benzimidazol-6-yl)-4-((4-(trifluoromethyl)-2-thienyl)methoxy)pyridin-2(1H)-one], the inhibition at 0.1 µM amounted to 71% in assay [1] and 97% on human MCHR1. In addition, the inhibition in vivo at 5000 µg/mL, 10 mg/kg in assay [2] turned out to be 57.9%.

For `Cn1c(C2CC2)nc2ccc(-n3ccc(OCc4nc(C5CC5)cs4)cc3=O)cc21` [Example 277, 1-(2-Cyclopropyl-1-methyl-1H-benzimidazol-6-yl)-4-((4-cyclopropyl-1,3-thiazol-2-yl)methoxy)pyridin-2(1H)-one], the results for the inhibition at 0.1 µM (in assay [1]; on human MCHR1) were 55% and 77%, respectively.

For the molecule `Cn1c(C2CC2)nc2ccc(-n3ccc(OCc4nc(C(F)F)cs4)cc3=O)cc21` [Example 283, 1-(2-Cyclopropyl-1-methyl-1H-benzimidazol-6-yl)-4-((4-(difluoromethyl)-1,3-thiazol-2-yl)methoxy)pyridin-2(1H)-one], the inhibition at 0.1 µM in assay [1] turned out to be 56%; at human MCHR1, 99%.

Consider `CCc1nc2ccc(-n3ccc(OCc4nc(C(F)F)cs4)cc3=O)cc2n1C` [Example 284, 4-((4-(Difluoromethyl)-1,3-thiazol-2-yl)methoxy)-1-(2-ethyl-1-methyl-1H-benzimidazol-6-yl)pyridin-2(1H)-one], for which the inhibition at 0.1 µM is 37% in assay [1] and 83% at human MCHR1.

`Cn1c(C2CC2)nc2ccc(-n3ccc(OCc4csc(C5CC5)n4)cc3=O)cc21` [Example 285, 1-(2-Cyclopropyl-1-methyl-1H-benzimidazol-6-yl)-4-((2-cyclopropyl-1,3-thiazol-4-yl)methoxy)pyridin-2(1H)-one]: the inhibition at 0.1 µM in assay [1] came out at 36%; at human MCHR1 it was 58%.

As for `Cc1nc2ccc(-n3ccc(OCc4cc(C(F)(F)F)cs4)cc3=O)cc2n1C` [Example 286, 1-(1,2-Dimethyl-1H-benzimidazol-6-yl)-4-((4-(trifluoromethyl)thiophen-2-yl)methoxy)pyridin-2(1H)-one], the inhibition at 0.1 µM in assay [1] was determined as 58%; on human MCHR1 it was 100%.

With `Cn1c(C2CC2)nc2ccc(-n3ccc(OCc4csc(C(F)F)n4)cc3=O)cc21` [Example 287, 1-(2-Cyclopropyl-1-methyl-1H-benzimidazol-6-yl)-4-((2-(difluoromethyl)-1,3-thiazol-4-yl)methoxy)pyridin-2(^1H)-one], the inhibition at 0.1 µM in assay [1] was 47%; on human MCHR1 it was 95%.

In the case of `CCc1nc2ccc(-n3ccc(OCc4csc(C(F)F)n4)cc3=O)cc2n1C` [Example 288, 4-((2-(Difluoromethyl)-1,3-thiazol-4-yl)methoxy)-1-(2-ethyl-1-methyl-1H-benzimidazol-6-yl)pyridin-2(1H)-one], the inhibition at 0.1 µM in assay [1] came to 40%; on human MCHR1, 87%.

As for `Cc1nc2ccc(-n3ccc(OCc4ccccc4)cc3=O)cc2n1C` [Example 289, 4-(Benzyloxy)-1-(1,2-dimethyl-1H-benzimidazol-6-yl)pyridin-2(1H)-one], the inhibition at 0.1 µM came to 48% in assay [1] and 100% on human MCHR1.

As to `Cc1c(C2CC2)nc2ccc(-n3ccc(OCc4ccc(F)cn4)cc3=O)cn12` [Example 291, 1-(2-Cyclopropyl-3-methylimidazo[1,2-a]pyridin-6-yl)-4-((5-fluoropyridin-2-yl)methoxy)pyridin-2(1H)-one hydrochloride], the results for the inhibition at 0.1 µM (in assay [1]; on human MCHR1) were 47% and 98%, respectively.
